Values quoted from earlier work, collected in US20070105912A1, “Pharmaceutical compositions comprising lercanidipine” (priority 2003, published 2007).
“And” between values parts separate entries of the source, which are not always exact repeats. Equal entries are not always repeated.

Terminal elimination t1/2 (in vivo): 2 to 5 h
Time of peak plasma levels following dosing (oral administration): 1.5 to 3 h
Fraction of the oral dose excreted in urine (oral dose): about 50%
Increase of amount absorbed with simultaneous intake of food (oral, with food vs without food): 3 to 4 times and 3-4 times
Bound to plasma proteins (plasma proteins): more than 98%
SMILES: COC(=O)C1=C(C)NC(C)=C(C(=O)OC(C)(C)CN(C)CCC(c2ccccc2)c2ccccc2)C1c1cccc([N+](=O)[O-])c1 (centres unmarked) [Lercanidipine, methyl 1,1-N-trimethyl-N-(3,3-diphenylpropyl)aminoethyl 1,4dihydro 6-dimethyl (3-nitrophenyl)pyridine-3,5-dicarboxylate]
